According to article PMC9757746 (Science Advances, 2022):

Experiments:
Assay type in all cases: biochemical
Cys4 (C. albicans CBS) [1] = molecular target: T1, Cys4 (C. albicans CBS) (Candida albicans, UniProt Q59T95); test: H2S generation, lead acetate, A390; settings: 10 mM L-cysteine, 10 mM L-homocysteine, 50 μM PLP, 200 mM Na/bicine pH 8.6, 37 °C; 10 min preincubation
T1 sequence (Q59T95 1-496): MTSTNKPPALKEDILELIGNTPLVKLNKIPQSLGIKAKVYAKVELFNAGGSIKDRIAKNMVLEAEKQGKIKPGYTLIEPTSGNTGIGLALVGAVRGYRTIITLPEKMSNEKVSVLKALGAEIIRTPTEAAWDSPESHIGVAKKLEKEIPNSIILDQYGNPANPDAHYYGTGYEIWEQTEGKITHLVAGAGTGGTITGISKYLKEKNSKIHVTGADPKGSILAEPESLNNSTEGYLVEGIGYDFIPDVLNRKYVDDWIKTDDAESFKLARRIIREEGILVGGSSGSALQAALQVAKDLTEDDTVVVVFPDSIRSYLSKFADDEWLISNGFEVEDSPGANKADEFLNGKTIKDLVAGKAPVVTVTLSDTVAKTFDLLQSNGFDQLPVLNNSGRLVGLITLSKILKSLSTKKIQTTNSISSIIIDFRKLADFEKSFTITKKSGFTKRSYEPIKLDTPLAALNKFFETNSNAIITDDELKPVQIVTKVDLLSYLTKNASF

Cys4 (C. albicans CBS) [2] = molecular target: T1, Cys4 (C. albicans CBS); test: H2S generation, lead acetate, A390; settings: 10 mM L-cysteine, 10 mM L-homocysteine, 50 μM PLP, 200 mM Na/bicine pH 8.6, 37 °C; screening hit
human CBS = molecular target: T2, human CBS (Homo sapiens, UniProt P35520); test: CBS activity inhibition; settings: weaker inhibition than of fungal CBS
T2 sequence (P35520 1-551): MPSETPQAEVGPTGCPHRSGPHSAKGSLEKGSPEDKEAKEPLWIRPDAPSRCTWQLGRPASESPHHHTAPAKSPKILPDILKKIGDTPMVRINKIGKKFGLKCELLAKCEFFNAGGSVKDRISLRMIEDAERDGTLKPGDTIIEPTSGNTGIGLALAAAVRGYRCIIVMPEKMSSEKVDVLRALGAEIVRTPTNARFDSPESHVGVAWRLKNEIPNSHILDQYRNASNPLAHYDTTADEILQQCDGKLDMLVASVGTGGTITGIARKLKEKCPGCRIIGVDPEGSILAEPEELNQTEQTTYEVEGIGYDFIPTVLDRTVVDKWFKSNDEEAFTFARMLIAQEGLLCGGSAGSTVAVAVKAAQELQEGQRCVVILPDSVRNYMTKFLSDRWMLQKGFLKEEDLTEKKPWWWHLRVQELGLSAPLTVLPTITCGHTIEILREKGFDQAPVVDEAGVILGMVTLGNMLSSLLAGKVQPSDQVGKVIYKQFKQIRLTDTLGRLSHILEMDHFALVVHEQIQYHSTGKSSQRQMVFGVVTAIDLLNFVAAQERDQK

cCBS-cc = molecular target: T3, cCBS-cc (Candida albicans, UniProt Q59T95); test: H2S generation inhibition; settings: catalytic core
T3 sequence (Q59T95 1-319): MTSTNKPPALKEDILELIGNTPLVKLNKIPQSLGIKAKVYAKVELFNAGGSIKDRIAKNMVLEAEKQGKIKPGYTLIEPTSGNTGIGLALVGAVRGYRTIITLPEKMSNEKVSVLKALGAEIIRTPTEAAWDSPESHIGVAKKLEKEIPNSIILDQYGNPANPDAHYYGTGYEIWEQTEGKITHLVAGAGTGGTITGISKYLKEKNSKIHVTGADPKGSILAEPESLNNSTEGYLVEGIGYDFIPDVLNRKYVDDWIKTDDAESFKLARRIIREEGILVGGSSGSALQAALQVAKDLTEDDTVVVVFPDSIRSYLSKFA

Cys3 (C. albicans CSE) = molecular target: T4, Cys3 (C. albicans CSE) (Candida albicans, UniProt Q5A362); test: CSE activity inhibition; settings: weaker inhibition than of CBS
T4 sequence (Q5A362 1-399): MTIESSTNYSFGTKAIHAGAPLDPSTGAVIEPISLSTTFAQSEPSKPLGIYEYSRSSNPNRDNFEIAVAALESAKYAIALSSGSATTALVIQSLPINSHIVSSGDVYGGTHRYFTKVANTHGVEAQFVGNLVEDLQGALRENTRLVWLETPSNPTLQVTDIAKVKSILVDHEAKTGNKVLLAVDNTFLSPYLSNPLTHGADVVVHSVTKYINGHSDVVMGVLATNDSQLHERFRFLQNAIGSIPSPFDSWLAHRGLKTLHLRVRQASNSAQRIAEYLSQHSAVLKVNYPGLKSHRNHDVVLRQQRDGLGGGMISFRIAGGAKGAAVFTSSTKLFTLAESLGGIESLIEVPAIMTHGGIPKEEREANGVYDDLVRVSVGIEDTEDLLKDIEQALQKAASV

## NOCC(=O)O [Aminooxyacetate]
Cys4 (C. albicans CBS) [1]
  dose-dependent inhibition: Dose-dependent inhibition of C. albicans CBS activity by PA and AOA

## CC(=O)c1c(O)c(C)c(O)c2c1OC1=CC(=O)C(C(C)=O)C(=O)C12C (stereo not drawn) [usnic acid]
Cys4 (C. albicans CBS) [2]
  H2S generation, lead acetate, A390: alternariol, and usnic acid (Fig. 5A and fig. S17)

## Cc1cc(O)cc2oc(=O)c3c(O)cc(O)cc3c12 [alternariol]
Cys4 (C. albicans CBS) [2]
  H2S generation, lead acetate, A390: several hits that displayed much better activity than AOA, including PA

## C=C1C(=O)O[C@@H](CCCCCCCCCCCCC)[C@@H]1C(=O)O [protolichesterinic acid]
Human CBS
  CBS activity inhibition: fungal CBS more potently than human CBS (fig. S19)
cCBS-cc
  H2S generation inhibition: still maintains potent ability to generate H2S and is inhibited by PA (fig. S24)
Cys3 (C. albicans CSE)
  CSE activity inhibition: it inhibited CBS more potently than CSE (fig. S18)
